Measured values: ChEMBL document CHEMBL4831493 (Eur J Med Chem, 2021)
Activity calls are given as the source filed them. The rule behind the calls is not given here.

Key:
Acetylcholinesterase = Acetylcholinesterase (Homo sapiens, UniProt P22303); assay: Inhibition of human recombinant AChE preincubated for 1 min in presence of DNTB followed by addition of acetylthiocholine iodide substrate and measured after 20 mins by Ellman's method
[1] = molecular target: Glycogen synthase kinase-3 beta (Homo sapiens, UniProt P49841); assay: Inhibition of human recombinant N-terminal His-tagged GSK3beta expressed in Escherichia coli using RRRPASVPPSPSLS RHS(pS)HQRR as substrate incubated for 30 mins in presence of ATP by Kinase-Glo reagent based luminescence assay
Cholinesterase = Cholinesterase (Homo sapiens, UniProt P06276); assay: Inhibition of BChE (unknown origin)
[2] = molecular target: Cholinesterases; ACHE & BCHE (Homo sapiens) (UniProt P06276+P22303); assay: Selectivity index, ratio of IC50 for BChE (unknown origin) to IC50 for human recombinant AChE; type: protein assay
[3] = molecular target: Cyclin-dependent kinase 1 (Homo sapiens) (UniProt P06493); assay: Inhibition of CDK1 (unknown origin) at 0.3 uM
[4] = molecular target: Cyclin-dependent kinase 9 (Homo sapiens) (UniProt P50750); assay: Inhibition of CDK9 (unknown origin) at 0.3 uM
[5] = molecular target: Mitogen-activated protein kinase 1 (Homo sapiens) (UniProt P28482); assay: Inhibition of ERK2 (unknown origin) at 0.3 uM
[6] = molecular target: Dual specificity tyrosine-phosphorylation-regulated kinase 1A (Homo sapiens) (UniProt Q13627); assay: Inhibition of dyrk1 alpha (unknown origin) at 0.3 uM
[7] = molecular target: Dual specificity tyrosine-phosphorylation-regulated kinase 1B (Homo sapiens) (UniProt Q9Y463); assay: Inhibition of dyrk1 beta (unknown origin) at 0.3 uM
[8] = molecular target: Mitogen-activated protein kinase 9 (Homo sapiens) (UniProt P45984); assay: Inhibition of JNK2 (unknown origin) at 0.3 uM
[9] = Effective permeability of the compound by PAMPA-BBB assay; type: ADME; conditions: read-out: Peff
[10] = Drug level in ICR mouse brain at 10 mg/kg, po measured after 1.5 hrs by LC/MS/MS analysis; type: ADME, organism-based; conditions: read-out: Ct
[11] = Ratio of drug level in brain to plasma of ICR mouse at 10 mg/kg, po measured after 1.5 hrs by LC/MS/MS analysis; type: ADME, organism-based; conditions: brain and plasma
[12] = AUC (0 to infinity) in Sprague-Dawley rat at 10 mg/kg, po measured up to 24 hrs by LC-MS/MS analysis; type: ADME, organism-based; design: route oral, dose 10 mg/kg, time <=24; conditions: in vivo
[13] = Half life in Sprague-Dawley rat at 10 mg/kg, po measured up to 24 hrs by LC-MS/MS analysis; type: ADME, organism-based; conditions: in vivo
[14] = Half life in Sprague-Dawley rat at 1 mg/kg, iv measured up to 24 hrs by LC-MS/MS analysis; type: ADME, organism-based; conditions: in vivo
[15] = MRT (0 to infinity) in Sprague-Dawley rat at 1 mg/kg, iv measured up to 24 hrs by LC-MS/MS analysis; type: ADME, organism-based; conditions: in vivo
Rattus norvegicus = assay: Neuroprotective activity against amyloid beta (1 to 42)-induced suppression of synaptophysin in Sprague-Dawley rat at 5 mg/kg/day, po measured after 5 days by immunohistochemistry assay; type: functional, organism-based; conditions: time 5.0 day
Mus musculus = assay: Cognitive enhancing effect in mouse model of scopolamine-induced amnesia assessed as escape latency time at 10 mg/kg/day, po measured by Morris water maze test (reference value: 17.9 sec); type: functional
[16] = molecular target: T1, Acetylcholinesterase (Mus musculus) (UniProt P21836); conditions: ICR, dose 10.0 mg/kg, time 1.5 hrs
T1 sequence (whole entry): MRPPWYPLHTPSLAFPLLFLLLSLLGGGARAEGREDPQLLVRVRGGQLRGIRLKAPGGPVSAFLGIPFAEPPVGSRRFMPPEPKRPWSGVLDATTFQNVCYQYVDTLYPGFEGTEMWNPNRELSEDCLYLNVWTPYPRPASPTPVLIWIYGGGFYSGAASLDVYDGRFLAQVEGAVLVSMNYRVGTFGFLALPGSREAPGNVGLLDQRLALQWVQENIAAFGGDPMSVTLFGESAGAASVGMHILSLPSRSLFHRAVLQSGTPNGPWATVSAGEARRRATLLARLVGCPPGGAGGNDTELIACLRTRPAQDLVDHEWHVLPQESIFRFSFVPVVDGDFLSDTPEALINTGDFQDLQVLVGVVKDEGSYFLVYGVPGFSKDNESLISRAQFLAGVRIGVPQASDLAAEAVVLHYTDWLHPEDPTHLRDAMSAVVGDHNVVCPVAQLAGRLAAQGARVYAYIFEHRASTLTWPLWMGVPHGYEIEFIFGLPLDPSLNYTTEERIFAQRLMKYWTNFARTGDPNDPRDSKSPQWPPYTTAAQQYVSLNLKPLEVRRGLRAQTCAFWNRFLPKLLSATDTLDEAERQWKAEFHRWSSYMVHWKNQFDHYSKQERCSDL

Chain of Cyclin-dependent kinase 9 (Homo sapiens) (P50750 whole entry): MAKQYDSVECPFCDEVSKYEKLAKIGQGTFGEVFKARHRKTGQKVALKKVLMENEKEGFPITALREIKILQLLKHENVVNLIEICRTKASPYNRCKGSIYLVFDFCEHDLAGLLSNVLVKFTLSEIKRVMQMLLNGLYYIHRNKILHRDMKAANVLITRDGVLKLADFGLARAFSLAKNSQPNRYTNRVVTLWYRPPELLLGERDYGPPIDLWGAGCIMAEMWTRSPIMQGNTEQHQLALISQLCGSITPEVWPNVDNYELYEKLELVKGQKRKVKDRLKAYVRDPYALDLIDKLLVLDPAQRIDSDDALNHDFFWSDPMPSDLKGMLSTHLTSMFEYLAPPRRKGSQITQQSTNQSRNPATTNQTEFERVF
Chain of Mitogen-activated protein kinase 1 (Homo sapiens) (P28482 whole entry): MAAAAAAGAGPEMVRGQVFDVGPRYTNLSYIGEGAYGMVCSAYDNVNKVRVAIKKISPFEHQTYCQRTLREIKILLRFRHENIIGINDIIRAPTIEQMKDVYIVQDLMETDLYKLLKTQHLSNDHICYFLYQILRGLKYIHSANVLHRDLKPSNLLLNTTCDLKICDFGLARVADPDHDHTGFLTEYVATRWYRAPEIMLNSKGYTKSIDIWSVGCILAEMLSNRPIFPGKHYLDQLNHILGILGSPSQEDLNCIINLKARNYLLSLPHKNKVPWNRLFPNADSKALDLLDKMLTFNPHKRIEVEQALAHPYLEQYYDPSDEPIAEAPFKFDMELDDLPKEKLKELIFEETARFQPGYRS
Chain of Acetylcholinesterase (P22303 whole entry): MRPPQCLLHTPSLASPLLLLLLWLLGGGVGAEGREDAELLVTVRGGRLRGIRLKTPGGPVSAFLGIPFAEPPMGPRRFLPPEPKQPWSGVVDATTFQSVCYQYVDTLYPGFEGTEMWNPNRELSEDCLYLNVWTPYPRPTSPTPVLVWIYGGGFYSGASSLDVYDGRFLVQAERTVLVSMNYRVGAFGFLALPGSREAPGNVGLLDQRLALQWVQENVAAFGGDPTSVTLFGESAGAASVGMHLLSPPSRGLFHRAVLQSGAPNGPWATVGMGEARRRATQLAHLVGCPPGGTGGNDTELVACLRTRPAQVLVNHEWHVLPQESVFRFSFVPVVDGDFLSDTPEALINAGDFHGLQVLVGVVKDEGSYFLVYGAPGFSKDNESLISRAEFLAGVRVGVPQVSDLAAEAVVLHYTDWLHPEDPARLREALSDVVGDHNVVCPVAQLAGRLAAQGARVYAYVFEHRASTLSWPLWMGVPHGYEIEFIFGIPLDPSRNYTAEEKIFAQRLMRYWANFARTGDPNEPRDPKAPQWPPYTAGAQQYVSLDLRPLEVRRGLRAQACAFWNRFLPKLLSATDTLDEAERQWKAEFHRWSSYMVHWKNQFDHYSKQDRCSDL
Chain of Mitogen-activated protein kinase 9 (Homo sapiens) (P45984 whole entry, looked up): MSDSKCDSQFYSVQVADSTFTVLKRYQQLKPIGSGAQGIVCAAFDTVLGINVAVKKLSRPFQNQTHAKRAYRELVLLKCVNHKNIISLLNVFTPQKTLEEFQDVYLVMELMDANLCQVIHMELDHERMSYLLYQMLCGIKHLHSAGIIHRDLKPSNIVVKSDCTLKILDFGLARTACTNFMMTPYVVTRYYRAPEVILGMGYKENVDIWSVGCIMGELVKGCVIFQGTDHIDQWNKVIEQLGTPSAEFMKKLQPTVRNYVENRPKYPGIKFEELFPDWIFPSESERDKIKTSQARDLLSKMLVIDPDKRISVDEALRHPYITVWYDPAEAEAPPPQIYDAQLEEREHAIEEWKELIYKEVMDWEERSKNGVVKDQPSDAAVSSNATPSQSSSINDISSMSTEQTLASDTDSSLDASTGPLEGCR
Chain of Dual specificity tyrosine-phosphorylation-regulated kinase 1B (Homo sapiens) (Q9Y463 whole entry, looked up): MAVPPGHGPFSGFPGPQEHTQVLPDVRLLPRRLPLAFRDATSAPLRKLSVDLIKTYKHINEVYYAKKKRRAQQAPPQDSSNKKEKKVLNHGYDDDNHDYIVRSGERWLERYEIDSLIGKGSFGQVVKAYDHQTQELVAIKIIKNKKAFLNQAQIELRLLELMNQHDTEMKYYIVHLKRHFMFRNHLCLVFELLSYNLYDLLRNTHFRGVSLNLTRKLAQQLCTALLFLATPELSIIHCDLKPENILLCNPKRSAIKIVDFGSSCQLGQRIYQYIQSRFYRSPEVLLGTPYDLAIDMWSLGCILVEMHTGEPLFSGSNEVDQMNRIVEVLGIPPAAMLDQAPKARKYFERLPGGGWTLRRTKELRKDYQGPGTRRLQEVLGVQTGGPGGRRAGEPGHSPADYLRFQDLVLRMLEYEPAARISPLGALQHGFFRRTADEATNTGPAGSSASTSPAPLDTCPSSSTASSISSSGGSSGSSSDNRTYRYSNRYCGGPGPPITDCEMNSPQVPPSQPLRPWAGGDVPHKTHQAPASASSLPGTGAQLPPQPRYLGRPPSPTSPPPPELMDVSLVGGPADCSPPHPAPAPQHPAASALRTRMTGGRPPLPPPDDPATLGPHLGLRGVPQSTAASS
Chain of Cholinesterases; ACHE & BCHE (Homo sapiens) (P06276 whole entry, looked up): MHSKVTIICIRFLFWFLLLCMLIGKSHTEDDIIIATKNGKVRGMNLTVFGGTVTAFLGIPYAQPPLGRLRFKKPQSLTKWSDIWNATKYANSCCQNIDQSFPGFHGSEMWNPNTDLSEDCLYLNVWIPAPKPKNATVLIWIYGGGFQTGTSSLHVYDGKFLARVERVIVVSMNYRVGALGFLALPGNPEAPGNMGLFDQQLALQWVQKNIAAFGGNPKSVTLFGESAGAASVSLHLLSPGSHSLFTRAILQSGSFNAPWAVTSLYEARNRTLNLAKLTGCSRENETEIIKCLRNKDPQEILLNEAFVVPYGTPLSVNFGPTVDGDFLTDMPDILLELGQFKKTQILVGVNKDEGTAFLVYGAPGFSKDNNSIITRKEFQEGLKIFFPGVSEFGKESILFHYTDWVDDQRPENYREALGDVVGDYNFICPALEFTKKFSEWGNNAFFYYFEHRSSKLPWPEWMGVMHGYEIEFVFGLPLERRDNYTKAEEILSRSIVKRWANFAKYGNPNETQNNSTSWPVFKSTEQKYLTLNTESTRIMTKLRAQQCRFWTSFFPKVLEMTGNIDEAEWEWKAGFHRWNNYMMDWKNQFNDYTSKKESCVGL
Chain of Cholinesterases; ACHE & BCHE (Homo sapiens) (P22303 whole entry, looked up): as the sequence (P22303 whole entry) above
Chain of Cholinesterase (P06276 whole entry): as the sequence (P06276 whole entry, looked up) above
Chain of Cyclin-dependent kinase 1 (Homo sapiens) (P06493 whole entry, looked up): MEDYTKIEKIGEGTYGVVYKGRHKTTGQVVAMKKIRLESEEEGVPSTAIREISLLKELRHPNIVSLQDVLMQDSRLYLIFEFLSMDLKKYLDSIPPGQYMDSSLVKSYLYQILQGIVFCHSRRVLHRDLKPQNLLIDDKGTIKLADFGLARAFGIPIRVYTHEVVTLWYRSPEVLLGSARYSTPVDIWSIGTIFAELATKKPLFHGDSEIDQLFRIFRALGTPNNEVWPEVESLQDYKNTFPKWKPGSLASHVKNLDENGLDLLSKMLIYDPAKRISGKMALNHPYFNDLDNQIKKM
Chain of Glycogen synthase kinase-3 beta (P49841 whole entry): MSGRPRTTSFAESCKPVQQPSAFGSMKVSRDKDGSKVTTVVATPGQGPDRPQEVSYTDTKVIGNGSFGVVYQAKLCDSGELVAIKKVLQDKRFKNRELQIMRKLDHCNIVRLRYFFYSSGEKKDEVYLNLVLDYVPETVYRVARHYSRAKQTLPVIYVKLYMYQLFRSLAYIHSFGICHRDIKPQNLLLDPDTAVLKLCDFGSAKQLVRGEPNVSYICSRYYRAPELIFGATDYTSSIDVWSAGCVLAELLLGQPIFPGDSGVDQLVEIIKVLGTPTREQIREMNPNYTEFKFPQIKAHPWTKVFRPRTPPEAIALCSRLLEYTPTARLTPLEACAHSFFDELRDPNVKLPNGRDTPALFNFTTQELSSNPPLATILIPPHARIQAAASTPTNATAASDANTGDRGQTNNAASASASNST

## O=C(Nc1cncc(OCC2CCN(Cc3ccc(F)cc3)CC2)c1)c1ccnc(NC(=O)C2CC2)c1
Acetylcholinesterase
  IC50: 1 nM
[1]
  IC50: 31 nM
Cholinesterase
  IC50: 5.3 µM
[2]
  Selectivity Index: 5300
[3]
  inhibition: inactive
[4]
  inhibition: inactive
[5]
  inhibition: inactive
[6]
  inhibition: inactive
[7]
  inhibition: inactive
[8]
  inhibition: inactive
[9]
  Papp: 10.5 ×10⁻⁶ cm/s
[10]
  concentration at 1.5 h: 113 ng/g
[11]
  Kp at 1.5 h: 0.33
[12]
  AUC(0-inf): 1260 ng·h/mL
[13]
  half-life: 456 min
[14]
  half-life: 312 min
[15]
  MRT inf: 5.1 h
Rattus norvegicus
  Activity: Active
Mus musculus
  Time: 18.1 s
[16]
  inhibition: 46.2%
